Measured values: US9814740B2, “Methods and compositions combining immunotherapy with monocyte activation” (Duke University, priority 2010, dated 2017)

How the values were obtained:
purified spleen B cells = test: B cell proliferation assay (CFSE); type: cell-based, mouse; conditions: 25 μg/ml, 72 h
Procedure: Proliferation assay. Splenic B cells were purified using CD19 mAb-coated microbeads (Miltenyi) and labeled with CFSE Vybrant™ CFDA SE fluorescent dye (5 μM; Invitrogen). Labeled B cells were then cultured in medium with LPS, CpG, or poly I:C (25 μg/ml) for 72 h and assessed by flow cytometry.

FcγRII/III = FcγRII/III expression by innate effector cells after TLR agonist treatment; type: in vivo, mouse; conditions: splenocytes 18 h after treatment
Procedure: FIG. 4 is a set of graphs showing that TLR agonists induce monocyte activation and enhance CD20 mAb-induced B cell depletion. […] Splenocytes were isolated from mice 18 h later and analyzed for FcγRII/III expression by immunofluorescence staining. For FIGS. 4A-B the results represent 2 independent experiments. […] B1b and B2 cells were distinguished based on their differential expression of CD11b. […] Representative peritoneal lymphocytes of CpG-treated MyD88^-/- or wild type mice following CD20 or control mAb (25 μg) treatment. Percentages (±SEM) represent mean B220^+ cell frequencies within the indicated gates 7 days after CD20 mAb treatment (≧3 mice per value) relative to control mAb-treated littermates (n=3). In FIG. 4C-E significant differences between sample means are indicated; *p<0.05, **p<0.01. Results represent 3-4 independent experiments. Immunofluorescence analysis. CD20 expression was visualized using biotin-conjugated mouse CD20 (MB20-11) mAb (Uchida et al., 2004b) plus phycoerythrin-Cy5 (PE-Cy5) streptavidin (eBioscience, San Diego, Calif.). Other mAbs included: B220 (RA3-6B2), CD1d (1B1), CD5 (53-7.3), CD19 (1D3), NK1.1 (PK136), and I-A/I-E (M5/114.15.2) from BD Biosciences (San Jose, Calif.). CD11b (M1/70), CD86 (GL1), F4/80 (BM8), IgM (II/41), Gr-1 (RB6-8C5), and IL-10 (JES5-16E3) mAbs were from eBioscience. TNF-α (MP6-XT22) mAb was from Biolegend (San Diego, Calif.). […]

peritoneal B cells = test: Peritoneal B cell depletion by CD20 mAb with TLR agonists; type: in vivo, mouse; conditions: MyD88^−/− versus C57BL/6 mice
Excerpt: Immunofluorescence analysis. CD20 expression was visualized using biotin-conjugated mouse CD20 (MB20-11) mAb (Uchida et al., 2004b) plus phycoerythrin-Cy5 (PE-Cy5) streptavidin (eBioscience, San Diego, Calif.). Other mAbs included: B220 (RA3-6B2), CD1d (1B1), CD5 (53-7.3), CD19 (1D3), NK1.1 (PK136), and I-A/I-E (M5/114.15.2) from BD Biosciences (San Jose, Calif.). CD11b (M1/70), CD86 (GL1), F4/80 (BM8), IgM (II/41), Gr-1 (RB6-8C5), and IL-10 (JES5-16E3) mAbs were from eBioscience. TNF-α (MP6-XT22) mAb was from Biolegend (San Diego, Calif.). For immunofluorescence analysis, single cell suspensions (10^6 cells) were stained at 4° C. using predetermined optimal concentrations of mAb for 30 minutes as described (Sato et al., 1996). CD20 immunotherapy and TLR agonist treatments. Sterile mouse anti-mouse CD20 mAb (MB20-11, IgG2c) and unreactive mouse control IgG2a mAb were as described ([…]-Colin et al., 2008). In some experiments, mice were treated with anti-NK1.1 mAb ([…]) on day -4 and day 3 for N K cell depletion. Macrophage deficiency was generated by tail vein injections of clodronate-encapsulated liposomes (Sigma-Aldrich) or control PBS-encapsulated liposomes (Van Rooijen and Sanders, 1994) 0.2 ml given on day -1 and 0.1 ml given on days 2, 5, and 9 (FIG. 3B) or 0.2 ml given on days -2, 1, and 4 (FIG. 3C). […]

[1] = tested on: purified mouse spleen B cells; test: Secreted IL-10 ELISA; type: cell-based; conditions: 25 μg/ml, 72 h
Procedure: Cytokine ELISA. Secreted IL-10 was quantified by ELISA. Purified B cells (4×10^5) were cultured in 0.2 ml of complete medium with TLR agoninsts (25 μg/ml) in a 96-well flat-bottom tissue culture plates. Culture supernatant fluid IL-10 concentrations were quantified using IL-10 OptEIA ELISA kits (BD PharMingen) bfollowing the manufacturer's protocols. All assays were carried out using triplicate samples.

[2] = tested on: human blood mononuclear cells; test: B10pro cell maturation in vitro (human); type: cell-based; conditions: 48 h, CpG = human ODN 2006
Procedure: (§1) For IL-10 detection, mouse spleen or blood mononuclear cells, BL3750 tumor cells, or human blood were resuspended (2×10^6 cells/ml) in complete medium [RPMI 1640 media (Cellgro, Herndon, Va.) containing 10% FCS (Sigma, St. Louis, Mo.). […]. 4 mM L-Glutamine (all Cellgro), and 55 μM 2-mercaptoethanol (Invitrogen, Carlsbad. CA)] with lipopolysaccharide (LPS, 10 μg/ml, Escherichia coli serotype 0111: B4, Sigma), phorbol myristate acetate (PMA, 50 ng/ml; Sigma), ionomycin (500 ng/ml; Sigma), and monensin (2 μM; eBioscience) for 5 h. B10 progenitor cells were induced to mature and acquire IL-10 competence in vitro by culturing the cells with LPS (10 μg/ml), CpG (human ODN 2006, 10 μg/ml; Invivogen, San Diego, Calif., mouse ODN 1668, 10 μg/ml; Integrated DNA Technologies, Coralville, Iowa), or poly I:C (Invivogen) for 48 h with the addition of monensin, PMA and ionomycin for the last 5 h of culture. For TNF-α detection, bone marrow cells were resuspended (2×10^6 cells/ml) in complete medium with Brefeldin A (1 μl; Biolegend) and TLR agonists (25 μg/ml) for 4 h. Before cell surface staining, Fc receptors were blocked using Fc receptor mAb (2.4G2; BD Biosciences), and dead cells were labeled using a LIVE/DEAD® Fixable Green Dead Cell Stain Kit (Invitrogen-Molecular Probes). […]

mouse spleen B cells = test: B10pro cell maturation in vitro (mouse); type: cell-based; conditions: purified mouse spleen B cells, 48 h
Procedure: as §1

[3] = tested on: bone marrow CD11b+ monocytes; test: TLR-induced TNF-α production by CD11b+ bone marrow cells; type: cell-based, mouse; conditions: TLR agonists 25 μg/ml, 4 h, Brefeldin A
Procedure: as §1

BL3750 lymphoma cells = test: BL3750 lymphoma model; type: in vivo, mouse
Procedure: Lymphoma model. BL3750 lymphoma cells were as described (Minard-Colin et al., 2008). This lymphoma model is accepted by those skilled in the art as a standard model for human lymphoma disease. For each experiment, tumor cells were thawed and expanded for 24-48 hours in complete medium (RPMI 1640 media containing 20% fetal bovine serum, 100 U/ml penicillin, 100 μg/ml streptomycin, 2 mM L-glutamine, and 55 μM 2-mercaptoethanol). BL3750 cells in 250 μl PBS were injected subcutaneously into the dorsal skin of recipient mice on day 0. This mouse model of lymphoma is a standard animal model for human lymphoma used and accepted by those skilled in the art. Mice were then given purified mAb in 250 μl of PBS intravenously, and starting on day 7 were monitored daily for tumor development and progression, and survival. Tumor measurements were as described (Minard-Colin et al., 2008).
CD20 immunotherapy and TLR agonist treatments. […] In some experiments, mice were treated with anti-NK1.1 mAb (100 g) on day −4 and day 3 for N K cell depletion. Macrophage deficiency was generated by tail vein injections of clodronate-encapsulated liposomes (Sigma-Aldrich) or control PBS-encapsulated liposomes (Van Rooijen and Sanders, 1994) 0.2 ml given on day −1 and 0.1 ml given on days 2, 5, and 9 (FIG. 3B) or 0.2 ml given on days −2, 1, and 4 (FIG. 3C).

macrophages = test: In vitro assay of antibody-dependent phagocytosis; type: cell-based, mouse
Procedure: In vitro assay of antibody-dependent phagocytosis. Spleen B cells were purified by MACS B cell isolation (Miltenyi Biotech), labeled with CFSE Vybrant™ CFDA SE fluorescent dye (5 μM; Invitrogen) and cultured over night in complete medium. CFSE-labeled B cells were incubated with CD20 mAb (MB20-11) on ice for 1 h, and washed with complete medium to remove unbound mAb. Macrophages were isolated from the peritoneal cavity of thioglycolate-treated mice by lavage. Peritineal macrophages were further purified by adherence to plastic before culture with or without poly I:C (25 μg/ml) in complete medium at 37° C. in a 5% CO2 atmosphere for 18 h. Macrophages and B cells were mixed at a 1:1 ratio and cultured for 2.5 h. The cell mixture was then stained with PE-conjugated CD11b mAb with the percentage of CFSE^+CD11b^+ (double-positive cells) analyzed by flow cytometry.

[4] = compared with parent poly I:poly C; cited from earlier work
[5] = 10^5 BL3750 cells day 0, control mAb plus TLR agonist on days 1, 7, 14 and 21

Row | Substance | B cell proliferation (purified spleen B cells) | FcγRII/III expression by innate effector cells (FcγRII/III) | ability to enhance peritoneal B cell depletion by CD20 mAb (peritoneal B cells) | IL-10 secretion [1] | B10pro cell maturation into IL-10-competent B10 cells [2] | B10pro cell maturation into IL-10-competent B10 cells (mouse spleen B cells) | TNF-α production by monocytes [3] | effect on mouse survival (BL3750 lymphoma cells; [5]) | median survival (BL3750 lymphoma cells; [5]) | phagocytic capacity of macrophages (macrophages; macrophages from TLR3^−/− or TRIF^−/− mice) | macrophage phagocytosis of CD20 mAb-coated B cells (macrophages; wild type macrophages, poly I:C 25 μg/ml 18 h, 1:1, 2.5 h) | reducing tumor growth in the mouse model (BL3750 lymphoma cells; compared with Poly (I:C)) | toxicity [4]
1 | CpG: CpG ODN 1668 (5′tccATGACGTTCCTGAtgcT3′, bases in lower case are phosphorothioate); TLR9 agonist (DNA TCCATGACGTTCCTGATGCT; DNA, linkages s3 o13 s3 (s phosphorothioate, o phosphodiester), methylation of C not given here) | proliferated significantly | higher levels of FcγRII/III expression | significantly reduced by MyD88-deficiency | induced IL-10 secretion | induced significant numbers of B10pro cells to mature | induced significant numbers of B10pro cells to mature | induced significant TNF-α production | – | – | – | – | – | –
2 | polyinosinic-polycytidylic acid [poly I:C] | did not proliferate | higher levels of FcγRII/III expression | – | without effect | without effect | without effect | induced significant TNF-α production | significant affect on mouse survival | 33 days | unable to augment | significantly enhanced | – | –
3 | polyadenylic-polyuridylic acid [Poly (A:U)] | – | – | – | – | – | – | – | – | – | – | – | not as effective as Poly (I:C) | –
4 | poly I:poly C12U [Ampligen] | – | – | – | – | – | – | – | – | – | – | – | – | lower toxicity
